Experimental data published in patent publication US20050009124A1, “Assays for detection of phosphoinositide kinase and phosphatase activity” (Echelon Biosciences Incorporated, priority 2001, published 2005).

Experiments:
GST-GRP1-PH = molecular target: T1, GST-GRP1-PH (Homo sapiens, UniProt O43739); assay: Competitive FP assay, displacement of fluorescent tracer from GST-GRP1-PH; type: binding; conditions: amounts over 100-fold greater than PI(3,4,5)P3
T1 construct: The PH domain of GRP1 (general receptor for phosphoinositides) was used as a detector for PI(3,4,5)P3
T1 sequence (O43739 264-381 limits assumed): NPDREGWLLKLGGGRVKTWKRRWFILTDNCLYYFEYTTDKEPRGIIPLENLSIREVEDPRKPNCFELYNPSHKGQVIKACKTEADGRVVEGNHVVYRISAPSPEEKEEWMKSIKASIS
Protocol: In order to use these reagents in a competitive FP assay, unlabeled phosphoinositide products of an enzymatic reaction must be able to successfully compete with the labeled tracer for interaction with the binding proteins. In addition, the level of cross-reactivity of binding proteins with the phosphoinositides used as enzyme substrates should be minimal. To examine the suitability of these phosphoinositide binding proteins for this application, competition assays were performed using optimal amounts of lipid binding proteins and fluorescent tracers, mixed with increasing amounts of diC8-phosphoinositide competitors.
The sensitivity of this approach for detecting conversion of PI(4,5)P2 to PI(3,4,5)P3 was evaluated using GST-GRP1-PH protein and FAM and BODIPY®-TMR labeled tracers. Competition assays in which both diC8-PI(3,4,5)P3 and diC8-PI(4,5)P2 were added at increasing concentrations were performed.

recombinant PI 3-Kinaseα = recombinant PI 3-Kinaseα (Homo sapiens, UniProt P42336); assay: Competitive FP assay for PI 3-Kinase activity; type: biochemical; conditions: substrate conversion at constant enzyme levels
From the text: The FP assays developed for the detection of PI 3-Kinase and SHIP2 activity were designed as competitive assays in which the enzyme product would compete with a fluorescently labeled synthetic phosphoinositide or inositol phosphate tracer for binding to a specific phosphoinositide binding protein. As the products of the enzymatic reaction increase, the soluble phosphoinositide products compete for the interaction of the binding protein and the fluorescent tracer, leading to a decrease in mP values as the amount of depolarized free tracer increases. Thus, changes in polarization should be inversely proportional to the degree of enzyme activity.
These assays involve four steps. First, the enzyme and substrate phosphoinositide are combined in an appropriate reaction buffer and the reaction is allowed to proceed. […] Finally, polarization values are measured to determine the extent of enzyme activity in the reaction.
The ability of FP competitive assays to detect the production of phosphoinositide products of PI 3-Kinaseα activity was tested using recombinant PI 3-Kinaseα. […] The production of PI(3,4,5)P3 was detected as a decrease in mP values as enzyme products compete with I(1,3,4,5)P4-BODIPY®-TMR for interaction with the binding protein.

SMQ-Grp1 = molecular target: T2, SMQ-Grp1 (Homo sapiens, UniProt O43739); assay: Competitive dequenching fluorogenic assay with SMQ-Grp1; type: binding; conditions: increasing amounts of competitor, compared with diC8 PI(3,4,5)P3
T2 construct: small molecular quencher (Dabcyl, QSY 7 or QSY 9); made in house
T2 sequence (O43739 1-400): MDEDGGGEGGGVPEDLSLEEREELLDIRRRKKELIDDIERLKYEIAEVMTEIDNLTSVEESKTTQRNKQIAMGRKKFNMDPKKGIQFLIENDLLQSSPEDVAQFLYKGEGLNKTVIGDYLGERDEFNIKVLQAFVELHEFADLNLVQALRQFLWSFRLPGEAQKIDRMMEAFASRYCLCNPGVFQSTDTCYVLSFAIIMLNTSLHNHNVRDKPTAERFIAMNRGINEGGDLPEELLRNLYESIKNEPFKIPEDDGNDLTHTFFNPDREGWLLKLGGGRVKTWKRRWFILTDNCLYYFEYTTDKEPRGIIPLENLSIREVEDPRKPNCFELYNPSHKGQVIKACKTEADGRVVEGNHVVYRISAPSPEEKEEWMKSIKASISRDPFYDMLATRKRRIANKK
Protocol: The fluorogenic assays were set up in a black 384-well plate. The combination of 100 nM, 10 nM and 1 nM of SMQ-Grp1 conjugate was incubated with 100 nM, 50 nM and 25 nM BODIPY®-FL-labeled PI(3,4,5)P3. The total assay volume was […] in a PBS buffer at a pH of 7.5. The assay mixture was incubated in the dark for one hour at 25° C. The plate was then transferred to an Alpha Fusion plate reader and read with a 485/520 nm filter. […] For example, if BODIPY®-FL-PI(3,4,5)P3 is fixed at 25 nM, increasing the amount of Dabcyl-Grp1 conjugate (from 1 nM to 100 nM) caused decreasing amounts of fluorescence (FIG. 24). Similar fluorescence quenching profiles were shown for QSY 7-Grp1 and QSY 9-Grp1.
The quenching effects of BODIPY®-FL-PI(3,4,5)P3 by SMQ-Grp1 were specific. diC8 PI(3,4,5)P3 as a competitor antagonized the fluorescence quenching effect of BODIPY®-FL-PI(3,4,5)P3 by SMQ-Grp1 in a dose-response manner. diC8 PI(3,4,5)P3 was used at varying concentrations to compete with BODIPY®-FL-PI(3,4,5)P3 for binding to the SMQ-Grp1 conjugate. […] In each bar graph in FIG. 25, from the right to the left, the bars show the fluorescence reading of PBS as the background, the diC8 PI(3,4,5)P3 only, the SMQ-Grp1 conjugate only, BODIPY®-FL-PI(3,4,5)P3 only, Grp1-SMQ plus BODIPY®-FL-PI(3,4,5)P3, Grp1-SMQ plus BODIPY®-FL-PI(3,4,5)P3 with 10 pmol of diC8 PI(3,4,5)P3 as the competitor, Grp1-SMQ plus BODIPY®-FL-PI(3,4,5)P3 with 100 pmol of diC8 PI(3,4,5)P3 as the competitor, Grp1-SMQ plus BODIPY®-FL-PI(3,4,5)P3 with 1000 pmol of diC8 PI(3,4,5)P3 as the competitor, and Grp1-SMQ plus BODIPY®-FL-PI(3,4,5)P3 with 10000 pmol of diC8 PI(3,4,5)P3 as competitor. […]
Fluorogenic assays were also used to compare competition of diC8 PI(3,4,5)P3 to PI(4,5)P2 and PI(3)P. With increasing amounts of PI(3,4,5)P3 the signal begins to increase, indicating competition, whereas as PI(4,5)P2 and PI(3)P show little change, indicating less competition. […] The production (or presence) of PI(3,4,5)P3 in this assay system corresponds to the elevation of the fluorescence signal.

[1] = tested on: PI(4,5)P2-specific LRP derived from PLCδ; assay: AlphaScreen binding and competition with PI(4,5)P2-specific LRP; conditions: biotinylated PI(4,5)P2 and PLCδ kept constant
Protocol: The present invention provides ALPHAScreen™ assays to detect specific binding and competition of phosphoinositide diphosphates using antibodies or LRPs. This approach can be used in competitive assays for the detection of PI(3,4)P2 and PI(4,5)P2 produced by lipid phosphatase or kinase activity. […] Increasing amounts of unlabeled PI(4,5)P2 or PI(3,4,5)P3 were added while levels of PLCδ and PI(4,5)P2 were kept constant. PI(4,5)P2 competition is approximately 90-fold greater than PI(3,4,5)P3 competition, indicating a high degree of specificity for recognition of PI(4,5)P2.

Chain of recombinant PI 3-Kinaseα (P42336 whole entry): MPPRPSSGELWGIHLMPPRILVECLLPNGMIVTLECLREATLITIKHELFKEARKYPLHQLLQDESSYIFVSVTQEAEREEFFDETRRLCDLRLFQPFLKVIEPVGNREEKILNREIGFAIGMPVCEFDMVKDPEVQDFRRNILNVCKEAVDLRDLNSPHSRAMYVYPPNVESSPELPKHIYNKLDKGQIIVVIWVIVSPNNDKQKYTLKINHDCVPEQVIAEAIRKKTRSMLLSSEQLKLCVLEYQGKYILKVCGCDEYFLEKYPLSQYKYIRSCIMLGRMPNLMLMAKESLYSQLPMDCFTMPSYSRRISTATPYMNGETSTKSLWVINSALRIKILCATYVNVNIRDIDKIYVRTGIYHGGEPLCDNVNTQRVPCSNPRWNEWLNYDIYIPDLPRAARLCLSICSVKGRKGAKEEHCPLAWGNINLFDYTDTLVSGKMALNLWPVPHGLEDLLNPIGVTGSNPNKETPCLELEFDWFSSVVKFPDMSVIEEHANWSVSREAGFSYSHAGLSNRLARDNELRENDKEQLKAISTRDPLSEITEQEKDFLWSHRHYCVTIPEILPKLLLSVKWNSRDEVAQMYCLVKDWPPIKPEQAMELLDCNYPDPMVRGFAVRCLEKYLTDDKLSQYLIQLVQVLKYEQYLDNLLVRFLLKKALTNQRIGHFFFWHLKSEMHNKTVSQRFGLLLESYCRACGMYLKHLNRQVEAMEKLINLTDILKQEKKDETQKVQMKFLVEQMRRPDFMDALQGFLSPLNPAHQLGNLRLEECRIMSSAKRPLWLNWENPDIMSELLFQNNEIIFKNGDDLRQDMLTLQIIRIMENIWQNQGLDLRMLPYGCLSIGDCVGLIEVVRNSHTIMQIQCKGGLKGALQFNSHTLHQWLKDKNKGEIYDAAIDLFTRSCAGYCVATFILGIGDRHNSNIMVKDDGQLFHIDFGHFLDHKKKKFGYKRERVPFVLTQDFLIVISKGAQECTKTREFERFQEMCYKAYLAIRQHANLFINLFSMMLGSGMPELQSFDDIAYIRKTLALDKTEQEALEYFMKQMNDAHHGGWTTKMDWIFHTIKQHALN
Chain of recombinant PI 3-Kinaseα (P27986 whole entry partner): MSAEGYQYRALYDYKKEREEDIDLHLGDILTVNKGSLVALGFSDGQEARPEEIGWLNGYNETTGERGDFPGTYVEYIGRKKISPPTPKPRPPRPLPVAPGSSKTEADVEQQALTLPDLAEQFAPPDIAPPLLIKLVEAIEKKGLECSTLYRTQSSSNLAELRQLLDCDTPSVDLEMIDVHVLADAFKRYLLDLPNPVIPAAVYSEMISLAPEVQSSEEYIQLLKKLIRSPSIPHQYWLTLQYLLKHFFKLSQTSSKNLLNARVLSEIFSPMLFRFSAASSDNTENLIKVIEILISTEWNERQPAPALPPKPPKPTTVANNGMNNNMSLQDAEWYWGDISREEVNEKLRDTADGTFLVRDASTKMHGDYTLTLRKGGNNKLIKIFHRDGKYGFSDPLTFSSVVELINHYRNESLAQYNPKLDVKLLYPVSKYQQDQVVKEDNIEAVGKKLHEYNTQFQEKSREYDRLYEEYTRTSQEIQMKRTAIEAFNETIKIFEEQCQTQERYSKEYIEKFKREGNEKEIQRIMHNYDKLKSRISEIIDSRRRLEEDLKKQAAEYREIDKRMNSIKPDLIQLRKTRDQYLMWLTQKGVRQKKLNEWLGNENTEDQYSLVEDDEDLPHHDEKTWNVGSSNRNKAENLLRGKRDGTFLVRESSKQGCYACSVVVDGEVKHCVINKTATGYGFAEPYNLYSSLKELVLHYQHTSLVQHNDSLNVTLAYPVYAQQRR

Row | Compound | effect on interaction of binding protein with fluorescent tracers (GST-GRP1-PH) | Km (recombinant PI 3-Kinaseα) | change of fluorescence signal (competition) (SMQ-Grp1) | competition relative to PI(3,4,5)P3 competition [1]
1 | CCCCCCCC(=O)OC[C@H](COP(=O)(O)O[C@@H]1[C@H](O)[C@H](O)[C@@H](OP(=O)(O)O)[C@H](OP(=O)(O)O)[C@H]1O)OC(=O)CCCCCCC [diC8-PI(4,5)P2] | minimal effect | ~3 µM | – | –
2 | PI(4,5)P2 | – | – | little change | approximately 90 fold
